Measured values: patent publication US11806346B2, “HTT modulators for treating Huntington's disease” (CHDI Foundation, Inc., priority 2020, dated 2023)

Tested on: tHTT (total HTT protein)
Test: Time-resolved FRET assay, total huntingtin (tHTT) detection in cell lysates
Assay type: cell-based, human
Settings: GEN020 hESCs (mutant 48 Q repeat allele), compounds added for 48 hours, TR-FRET on lysate; read-out: tHTT EC50
In short: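 TR-FRET readout on cell lysates, with the donor/acceptor ratio reflecting relative total HTT.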

Row | EC50 [nM] | SMILES
1 | < 100 | Cc1cn2cc(NC(=O)c3cnc(N4CC[C@@H](NC5CC5)C4)cn3)cc(Cl)c2n1 [Example 341]
2 | 100 to 500 | Cc1cn2cc(NC(=O)c3cnc(N4CC(CN5CC[C@H](F)C5)C4)cn3)cc(Cl)c2n1 [Example 342]
3 | 100 to 500 | Cc1cn2cc(NC(=O)c3cnc(N4CC(CN5CC6C[C@]6(F)C5)C4)cn3)cc(F)c2n1 (stereo partly drawn) [Example 343, N-(8-fluoro-2-methylimidazo[1,2-a]pyridin-6-yl)-5-(3-(((1R)-1-fluoro-3-azabicyclo[3.1.0]hexan-3-yl)methyl)azetidin-1-yl)pyrazine-2-carboxamide]
4 | < 100 | CCN[C@@H]1CCN(c2cnc(C(=O)Nc3cn4cc(C)nc4cc3OC)cn2)C1 [Example 345, (R)-5-(3-(ethylamino)pyrrolidin-1-yl)-N-(7-methoxy-2-methylimidazo[1,2-a]pyridin-6-yl)pyrazine-2-carboxamide]
5 | 100 to 500 | Cc1cn2cc(NC(=O)c3cnc(N4CC[C@@H](NC5CC5)C4=O)cn3)cc(F)c2n1 [Example 348, (R)-5-(3-(cyclopropylamino)-2-oxopyrrolidin-1-yl)-N-(8-fluoro-2-methylimidazo[1,2-a]pyridin-6-yl)pyrazine-2-carboxamide]
6 | 100 to 500 | CNCC1CN(c2cnc(C(=O)Nc3cc(F)c4nc(C)oc4c3)cn2)C1 [Example 349, N-(4-fluoro-2-methylbenzo[d]oxazol-6-yl)-5-(3-((methylamino)methyl)azetidin-1-yl)pyrazine-2-carboxamide]
7 | 100 to 500 | Cn1cc2cc(NC(=O)c3cnc(N4CC(CN5CC(F)C5)C4)cn3)cc(F)c2n1 [Example 350, N-(7-fluoro-2-methyl-2H-indazol-5-yl)-5-(3-((3-fluoroazetidin-1-yl)methyl)azetidin-1-yl)pyrazine-2-carboxamide]
8 | 100 to 500 | COc1cc2nn(C)cc2cc1NC(=O)c1cnc(N2CC[C@@H](CNC3CC3)C2)cn1 [Example 351, (S)-5-(3-((cyclopropylamino)methyl)pyrrolidin-1-yl)-N-(6-methoxy-2-methyl-2H-indazol-5-yl)pyrazine-2-carboxamide]
9 | 500 to 1000 | Cc1cn2cc(NC(=O)c3cnc(N4C[C@H]5NCCO[C@@H]5C4)cn3)cc(F)c2n1 [Example 352, N-(8-fluoro-2-methylimidazo[1,2-a]pyridin-6-yl)-5-((4aR,7aR)-hexahydropyrrolo[3,4-b][1,4]oxazin-6(2H)-yl)pyrazine-2-carboxamide]

The remaining lines, values behind:

Row | SMILES | EC50 [nM]
10 | Cc1cn2cc(NC(=O)c3cnc(N4CCC(CNC5CC5)C4=O)cn3)cc(F)c2n1 (centres unmarked) [Example 316, 5-(3-((cyclopropylamino)methyl)-2-oxopyrrolidin-1-yl)-N-(8-fluoro-2-methylimidazo[1,2-a]pyridin-6-yl)pyrazine-2-carboxamide] | 100 to 500
11 | Cc1cn2cc(NC(=O)c3cnc(N4C[C@H]5CN(C)C[C@H]5C4=O)cn3)cc(F)c2n1 [Example 317, N-(8-fluoro-2-methylimidazo[1,2-a]pyridin-6-yl)-5-((3aR,6aS)-5-methyl-1-oxohexahydropyrrolo[3,4-c]pyrrol-2(1H)-yl)pyrazine-2-carboxamide] | 100 to 500
12 | CN(CC1CN(c2cnc(C(=O)Nc3cc(F)c4nn(C)cc4c3)cn2)C1)C1CC1 [Example 320, 5-(3-((cyclopropyl(methyl)amino)methyl)azetidin-1-yl)-N-(7-fluoro-2-methyl-2H-indazol-5-yl)pyrazine-2-carboxamide] | 100 to 500
13 | Cn1cc2cc(NC(=O)c3cnc(N4CC(CCNC5CC5)C4)cn3)cc(F)c2n1 [Example 321, 5-(3-(2-(cyclopropylamino)ethyl)azetidin-1-yl)-N-(7-fluoro-2-methyl-2H-indazol-5-yl)pyrazine-2-carboxamide] | 500 to 1000
14 | COCCOC1CN(CC2CN(c3cnc(C(=O)Nc4cc(F)c5nc(C)cn5c4)cn3)C2)C1 [Example 322, N-(8-fluoro-2-methyl-imidazo[1,2-a]pyridin-6-yl)-5-[3-[[3-(2-methoxyethoxy)azetidin-1-yl]methyl]azetidin-1-yl]pyrazine-2-carboxamide] | 100 to 500
15 | CCN[C@H]1CN(c2cnc(C(=O)Nc3cn4cc(C)nc4c(OC)n3)cn2)C[C@H]1F [Example 324, 5-((3S,4R)-3-(ethylamino)-4-fluoropyrrolidin-1-yl)-N-(8-methoxy-2-methylimidazo[1,2-a]pyrazin-6-yl)pyrazine-2-carboxamide] | 100 to 500
16 | CCNC1CN(c2cnc(C(=O)Nc3cn4cc(C)nc4c(OC)n3)cn2)CC1F [Example 325, 5-((3R,4S)-3-(ethylamino)-4-fluoropyrrolidin-1-yl)-N-(8-methoxy-2-methylimidazo[1,2-a]pyrazin-6-yl)pyrazine-2-carboxamide] | 100 to 500
17 | CCNC1CN(c2cnc(C(=O)Nc3cc(F)c4nc(C)cn4c3)cn2)CC1F (centres unmarked) [Example 326] | 100 to 500
18 | Cc1cn2cc(NC(=O)c3cnc(N4CCC(CN5CCCC5)C4)cn3)cc(F)c2n1 (centres unmarked) [Example 327] | 100 to 500
19 | CNC1CN(c2ncc(C(=O)Nc3cn4cc(C)nc4c(C)n3)cn2)CC1F (centres unmarked) [Example 331] | 500 to 1000
20 | CNC1CN(c2ncc(C(=O)Nc3cc(F)c4nc(C)cn4c3)cn2)CC1F (centres unmarked) [Example 332] | 100 to 500
21 | CCNC1CN(c2ncc(C(=O)Nc3cn4cc(C)nc4c(C)n3)cn2)CC1F (centres unmarked) [Example 333] | 500 to 1000
22 | CCNC1CN(c2ncc(C(=O)Nc3cn4cc(C)nc4c(C)n3)cn2)CC1F (centres unmarked) [Example 334] | 500 to 1000
23 | Cc1cn2cc(NC(=O)c3cnc(N4CC(CN(C)C5CC5)C4)nc3)cc(F)c2n1 [Example 335, 2-[3-[[cyclopropyl(methyl)amino]methyl]azetidin-1-yl]-N-(8-fluoro-2-methyl-imidazo[1,2-a]pyridin-6-yl)pyrimidine-5-carboxamide] | 100 to 500
24 | Cc1cn2cc(NC(=O)c3cnc(N4CC5(CNCCO5)C4)cn3)cc(F)c2n1 [Example 338, N-(8-fluoro-2-methylimidazo[1,2-a]pyridin-6-yl)-5-(5-oxa-2,8-diazaspiro[3.5]nonan-2-yl)pyrazine-2-carboxamide] | 100 to 500
25 | Cc1nc2c(F)cc(NC(=O)c3cnc(N4CCNC(C)C4)cn3)cc2o1 (centres unmarked) [Example 339, N-(4-fluoro-2-methylbenzo[d]oxazol-6-yl)-5-(3-methylpiperazin-1-yl)pyrazine-2-carboxamide] | 1000 to 10000
26 | Cc1nc2c(F)cc(NC(=O)c3cnc(N4CC[C@@H](N)C4)cn3)cc2o1 [Example 340] | 100 to 500

Same assay, conditions: read-out: tHTT EC50; GEN020 hESCs (mutant 48 Q repeat allele), compounds added for 48 hours, TR-FRET on lysate

Row | SMILES | EC50 [nM]
27 | Cc1cc(NC(=O)c2cnc(N3CC(CNC4CC4)C3)cn2)cn2cc(CF)nc12 [Example 315, 5-(3-((cyclopropylamino)methyl)azetidin-1-yl)-N-(2-(fluoromethyl)-8-methylimidazo[1,2-a]pyridin-6-yl)pyrazine-2-carboxamide] | 500 to 1000
28 | Cn1cc2cc(NC(=O)c3cnc(N4CC(CNCC(F)F)C4)cn3)cc(F)c2n1 [Example 323, 5-(3-(((2,2-difluoroethyl)amino)methyl)azetidin-1-yl)-N-(7-fluoro-2-methyl-2H-indazol-5-yl)pyrazine-2-carboxamide] | 500 to 1000
29 | Cc1cc2cc(NC(=O)c3cnc(N4CC(CNC5CC5)C4)cn3)cc(Cl)n2n1 [Example 344, N-(7-chloro-2-methylpyrazolo[1,5-a]pyridin-5-yl)-5-(3-((cyclopropylamino)methyl)azetidin-1-yl)pyrazine-2-carboxamide] | 100 to 500
